22 compounds from patent US20250051347A1, “BIFUNCTIONAL CHIMERIC HETEROCYCLIC COMPOUND AND USE THEREOF AS ANDROGEN RECEPTOR DEGRADER” (Hinova Pharmaceuticals, Inc., priority 2021, published 2025) can be followed below.

Bounds are passed on as bounds.

One assay concerns the target T1, androgen receptor (AR) splicing variant AR-v7 (Homo sapiens, UniProt P10275).
T1 construct: The degradation activity of compounds on AR-v7 in 22RV1 cells; host or cells: 22RV1 cells
T1 sequence (P10275 1-644 isoform P10275-3): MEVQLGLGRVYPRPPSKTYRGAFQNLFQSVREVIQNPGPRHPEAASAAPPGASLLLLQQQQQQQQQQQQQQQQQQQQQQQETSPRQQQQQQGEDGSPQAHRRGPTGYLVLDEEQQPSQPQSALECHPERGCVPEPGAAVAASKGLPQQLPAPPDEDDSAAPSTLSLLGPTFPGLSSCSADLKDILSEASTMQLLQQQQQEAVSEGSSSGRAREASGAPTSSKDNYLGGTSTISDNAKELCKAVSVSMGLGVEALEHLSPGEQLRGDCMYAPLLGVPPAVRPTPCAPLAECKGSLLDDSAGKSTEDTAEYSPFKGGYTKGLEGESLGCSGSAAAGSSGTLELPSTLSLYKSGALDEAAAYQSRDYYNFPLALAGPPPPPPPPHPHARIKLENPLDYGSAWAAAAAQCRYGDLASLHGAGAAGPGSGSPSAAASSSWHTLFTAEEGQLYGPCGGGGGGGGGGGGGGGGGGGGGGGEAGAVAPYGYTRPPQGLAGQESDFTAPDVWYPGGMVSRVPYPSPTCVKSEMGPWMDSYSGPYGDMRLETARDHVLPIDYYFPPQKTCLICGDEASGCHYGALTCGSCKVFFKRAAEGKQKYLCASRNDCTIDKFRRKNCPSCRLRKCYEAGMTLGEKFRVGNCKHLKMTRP
Put plainly: Degradation activity on androgen receptor splicing variant AR-v7 in 22RV1 cells (ELISA). The format is cell-based. Particulars: AR-v7 degradation in 22RV1 cells, 48 h, class symbols. The protocol: The degradation activity of the compound of the present invention on the androgen receptor splicing variant AR-V7 was analyzed using enzyme-linked immunosorbent assay (ELISA).
The plate was cultured in a 5% CO2 cell incubator at 37° C. for 2 days until the cells adhered to the wall. • 2) The drug was prepared into 10 mM stock solution with dimethylsulfoxide (DMSO). […] The plate was gently shaken and mixed. In addition, negative control wells (only containing culture medium) and positive control wells (only containing cells and DMSO) were set. • 3) After the cells were cultured in an incubator for 48 h, the medium was removed and the cells were rinsed once with ice cold PBS. Then, ice-cold 1× cell lysis buffer was added to each well of the cell culture plate. After the plate was incubated on ice for 15 min, the plate was tapped to mix. • 4) The supernatant of the cell lysate was transferred from the cell culture plate to a […] plate for ELISA. • 5) The newly prepared Capture antibody (green) was mixed with the newly prepared HRP-labeled antibody (red), and then the antibody mixture was added to the above 96-well ELISA plate. • 6) The ELISA plate was sealed with plastic film, and then incubated in a 25° C. incubator for 1 h. • 7) The washing buffer was added to each well, and then TMB substrate was added to each well of the ELISA plate. Subsequently, the plate was cultured in an incubator at 37° C. for 5 min. • 8) 100 μl of stop solution was added to each well of the ELISA plate, and the plate was gently tapped for several seconds. The absorbance was read at 450 nm within 30 min. The data were analyzed by the Dose-response equation in the software GraphPad Prism8, to obtain DC50 and Dmax values.
Background: ELISA stands for enzyme-linked immunosorbent assay.
The term DC50 denotes the concentration giving 50% degradation. A low value points to degradation at low concentration. `CC(=O)c1nccc(COc2ccc(C(C)(C)c3ccc(OC[C@H]4CCN4c4ccc5c(c4)C(=O)N(C4CCC(=O)NC4=O)C5=O)cc3)cc2)n1` (stereo partly drawn) [Example 307, 5-((R)-2-((4-(2-(4-((2-acetylpyrimidin-4-yl)methoxy)phenyl)propan-2-yl)phenoxy)methyl)azetidin-1-yl)-2-(2,6-dioxopiperidin-3-yl)isoindolin-1,3-dione] returned a DC50 of 1000 to 5000 nM. In turn, `CC(=O)c1nccc(COc2ccc(C(C)(C)c3ccc(O[C@H]4C[C@H](N(C)c5ccc6c(c5)C(=O)N(C5CCC(=O)NC5=O)C6=O)C4)cc3)cc2)n1` (stereo partly drawn) [Example 111, 5-(((trans)-3-(4-(2-(4-((2-acetylpyrimidin-4-yl)methoxy)phenyl)propan-2-yl)phenoxy)cyclobutyl)(methyl)amino)-2-(2,6-dioxopiperidin-3-yl)isoindolin-1,3-dione] displayed a DC50 of 101 to 1000 nM. The compound “5-(((1s,3s)-3-(4-(2-(4-((2-(2H-1,2,3-triazol-2-yl)pyrimidin-5-yl)oxy)phenyl)propan-2-yl)phenoxy)cyclobutyl)amino)-2-(2,6-dioxopiperidin-3-yl)isoindolin-1,3-dione [Example 482]” registered a DC50 of 11 to 100 nM. The compound `CCOC(=O)c1ncc(Oc2ccc(C(C)(C)c3ccc(O[C@H]4C[C@H](Nc5ccc6c(c5)C(=O)N(C5CCC(=O)NC5=O)C6=O)C4)cc3)cc2)cn1` (stereo partly shown) [Example 381, ethyl 5-(4-(2-(4-((1r,3r)-3-((2-(2,6-dioxopiperidin-3-yl)-1,3-dioxoisoindolin-5-yl)amino)cyclobutyloxy)phenyl)isopropan-2-yl)phenoxy)pyrimidin-2-carboxylate] came in with a half-maximal degradation concentration (DC50) of 11 to 100 nM. The same measure, in the same setting: under `CN(C)C(=O)c1noc(COc2ccc(C(C)(C)c3ccc(OCCCNc4ccc5c(c4)C(=O)N(C4CCC(=O)NC4=O)C5=O)cc3)cc2)n1` (stereo not shown) [Example 180, 5-((4-(2-(4-(3-((2-(2,6-dioxopiperidin-3-yl)-1,3-dioxoisoindolin-5-yl)amino)propoxy)phenyl)propan-2-yl)phenoxy)methyl)-N,N-dimethyl-1,2,4-oxadiazol-3-carbonylamine] stands 1000 to 5000 nM; under `Cc1nc(-c2ncc(Oc3ccc(C(C)(C)c4ccc(O[C@H]5C[C@H](Nc6ccc7c(c6)C(=O)N(C6CCC(=O)NC6=O)C7=O)C5)cc4)cc3)cc2F)no1` (stereo partly shown) [Example 511], 11 to 100 nM; under `CC(C)(c1ccc(Oc2ccc(N3CC4(COC4)C3)nn2)cc1)c1ccc(O[C@H]2C[C@@H](Nc3ccc4c(c3)C(=O)N(C3CCC(=O)NC3=O)C4=O)C2)cc1` (stereo partly shown) [Example 317], 11 to 100 nM. Regarding `CC(C)(c1ccc(CNc2ccc3c(c2)C(=O)N(C2CCC(=O)NC2=O)C3=O)cc1)c1ccc(OCc2ccnc(N3CC4(COC4)C3)n2)cc1` (stereo not shown) [Example 507, 5-((4-(2-(4-((2-(2-oxa-6-azaspiro[3.3]heptan-6-yl)pyrimidin-4-yl)methoxy)phenyl)propan-2-yl)benzyl)amino)-2-(2,6-dioxopiperidin-3-yl)isoindolin-1,3-dione], the 50% degradation concentration (DC50) lay within 11 to 100 nM. Turning to `Cc1nc(-c2ccc(Oc3ccc(C(C)(C)c4ccc(O[C@H]5C[C@H](Nc6ccc7c(c6)C(=O)N(C6CCC(=O)NC6=O)C7=O)C5)cc4)cc3)cc2)no1` (stereo partly shown) [Example 332, 2-(2,6-dioxopiperidin-3-yl)-5-((1r,3r)-3-(4-(2-(4-(4-(5-methyl-1,2,4-oxadiazol-3-yl)phenoxy)phenyl)propan-2-yl)phenoxy)cyclobutyl)aminoisoindolin-1,3-dione], the half-maximal degradation concentration (DC50) was in the range of 11 to 100 nM. Still for that read-out and setting: under `CC(O)c1nccc(COc2ccc(C(C)(C)c3ccc(O[C@H]4CC[C@H](Nc5ccc6c(c5)C(=O)N(C5CCC(=O)NC5=O)C6=O)CC4)cc3)cc2)n1` (stereo partly shown) [Example 354, 2-(2,6-dioxopiperidin-3-yl)-5-(((1r,4r)-4-(4-(2-(4-((2-(1-hydroxylethyl)pyrimidin-4-yl)methoxy)phenyl)isopropan-2-yl)phenoxy)cyclohexyl)amino)isoindolin-1,3-dione] stands 1000 to 5000 nM. The same measure, in the same setting: under `CC(C)(c1ccc(CCNc2ccc3c(c2)C(=O)N(C2CCC(=O)NC2=O)C3=O)cc1)c1ccc(OCc2ccnc(N3CC4(COC4)C3)n2)cc1` (stereo not shown) [Example 318, 5-((4-(2-(4-((2-(2-oxa-6-azaspiro[3.3]heptan-6-yl)pyrimidin-4-yl)methoxy)phenyl)propan-2-yl)phenylethyl)amino)-2-(2,6-dioxopiperidin-3-yl)isoindolin-1,3-dione] stands 101 to 1000 nM; under `Cc1nc(-c2ccc(Oc3ccc(C(C)(C)c4ccc(O[C@H]5C[C@H](Nc6ccc7c(c6)C(=O)N(C6CCC(=O)NC6=O)C7=O)C5)cc4)cc3)nc2)no1` (stereo partly shown) [Example 546], 11 to 100 nM; under `CC(C)(c1ccc(OCCC#Cc2ccc3c(c2)C(=O)N(C2CCC(=O)NC2=O)C3=O)cc1)c1ccc(OCc2ccnc(N3CC4(COC4)C3)n2)cc1` (stereo not shown) [Example 497], 1000 to 5000 nM.

The same assay, now with this note: AR-v7 degradation in 22RV1 cells, 48 h, numeric values.
`CC(C)(c1ccc(OCc2ccnc(NS(C)(=O)=O)n2)cc1)c1ccc(OC2CCN(c3cccc4c3C(=O)N(C3CCC(=O)NC3=O)C4=O)CC2)cc1` (stereo not shown) [Example 35, N-(4-((4-(2-(4-((1-(2-(2,6-dioxopiperidin-3-yl)-1,3-dioxoisoindolin-4-yl)piperidin-4-yl)oxy)phenyl)propan-2-yl)phenoxy)methyl)pyrimidin-2-yl)methanesulfonamide] came in with a DC50 above 10000 nM. Same read-out and setting: the same measure for `CC(=O)c1nccc(COc2ccc(C(C)(C)c3ccc(OCC4CCN(c5ccc6c(c5)C(=O)N(C5CCC(=O)NC5=O)C6=O)CC4)cc3)cc2)n1` (stereo not shown) [Example 108, 5-(4-((4-(2-(4-((2-acetylpyrimidin-4-yl)methoxy)phenyl)propan-2-yl)phenoxy)methyl)piperidin-1-yl)-2-(2,6-dioxopiperidin-3-yl)isoindol-1,3-dione]: above 10000 nM; for `CC(=O)c1nccc(COc2ccc(C(C)(C)c3ccc(OCCCCCCCCOCCN4CCN(c5ccc6c(c5)C(=O)N(C5CCC(=O)NC5=O)C6=O)CC4)cc3)cc2)n1` (stereo not shown) [Example 299, 5-(4-(2-((8-(4-(2-(4-((2-acetylpyrimidin-4-yl)methoxy)phenyl)propan-2-yl)phenoxy)octyl)oxy)ethyl)piperazin-1-yl)-2-(2,6-dioxopiperidin-3-yl)isoindolin-1,3-dione]: above 10000 nM. On the same count and under the same terms, under `CC(C)(c1ccc(OCCCN2CCN(CC3CCN(CCCNc4ccc5c(c4)C(=O)N(C4CCC(=O)NC4=O)C5=O)CC3)CC2)cc1)c1ccc(OCc2ccnc(NS(C)(=O)=O)n2)cc1` (stereo not shown) [Example 29, N-(4-((4-(2-(4-(3-(4-((1-(3-((2-(2,6-dioxopiperidin-3-yl)-1,3-dioxoisoindolin-5-yl)amino)propyl)piperidin-4-yl)methyl)piperazin-1-yl)propoxy)phenyl)propan-2-yl)phenoxy)methyl)pyrimidin-2-yl)methanesulfonamide] stands 6330 nM. In the case of `CC(=O)c1nccc(COc2ccc(C(C)(C)c3ccc(OCCCCCCCCOCC4CN(c5ccc6c(c5)C(=O)N(C5CCC(=O)NC5=O)C6=O)C4)cc3)cc2)n1` (stereo not shown) [Example 298], the DC50 is above 10000 nM. Still for that read-out and setting: under `CN1CCC2(CCN(c3nccc(COc4ccc(C(C)(C)c5ccc(OCCCCCCCCOCCCCNc6ccc7c(c6)C(=O)N(C6CCC(=O)NC6=O)C7=O)cc5)cc4)n3)C2)C1` (stereo not shown) [Example 384] stands above 5000 nM; under `CC(C)(c1ccc(OCc2ccnc(NS(C)(=O)=O)n2)cc1)c1ccc(OCC2CCN(C[C@H]3CC[C@H](CN4CCN(c5ccc6c(c5)C(=O)N(C5CCC(=O)NC5=O)C6=O)CC4)CC3)CC2)cc1` (stereo partly shown) [Example 45], 8760 nM; under `CC(C)(c1ccc(OCCCCOCCCCN2CCC3(CC2)CN(c2ccc4c(c2)C(=O)N(C2CCC(=O)NC2=O)C4=O)C3)cc1)c1ccc(OCc2ccnc(NS(C)(=O)=O)n2)cc1` (stereo not shown) [Example 3], above 10000 nM. Consider `CC(C)(c1ccc(OCc2ccnc(NS(C)(=O)=O)n2)cc1)c1ccc(OC[C@H]2CC[C@H](CN3CCC(CN4CCN(c5ccc6c(c5)C(=O)N(C5CCC(=O)NC5=O)C6=O)CC4)CC3)CC2)cc1` (stereo partly shown) [Example 43], for which the half-maximal degradation concentration (DC50) is above 10000 nM.
